# Results as given in US9492496B2, “Aminothiazoles and their uses” (Novartis AG, priority 2007, dated 2016).
# Tested on: prokaryotic transcription-translation (E. coli S30 extract)
# Test: In vitro assay for inhibition of prokaryotic transcription-translation (Promega E. coli S30 Extract System, pBESTluc luciferase readout)
# Type: biochemical
# Conditions: 2 uM compound, 2 h at 37° C., luciferase luminescence
# Experimental: In vitro assay for inhibition of prokaryotic transcription-translation [as described in the following references: 1. Zubay, G. (1973) In vitro synthesis of protein in microbial systems. Annu. Rev. Genet. 7, 267.87. 2. Zubay, G. (1980) The isolation and properties of CAP, the catabolite gene activator. Meth. Enzymol. 65, 856.77]. Antibiotic and compound dilutions: stock solutions of compound to be assayed at 2 μM are 80 μM in 40% DMSO. Stock solutions of compounds to be assayed at 10 μM are 400 μM in 40% DMSO.
# Assay setup and protocol for Promega E. coli S30 Extract System
# The assay is performed as follows: pipet 3.5 μl of 286 ng/μl template DNA (pBESTluc™) into assay wells. Negative control wells receive sdH2O only. Transfer 0.5 μl of 40× compound stock solution to assay wells. Positive control wells (no compound) receive 0.5 μl 40% DMSO sdH2O. Pipet 16 μl of master mix into assay wells. Incubate plate for two hours at 37° C. Rapidly chill the assay plate on ice for five minutes to stop the reaction. Add an equal volume (20 μl) of room temperature Steady-Glo® Luciferase assay reagent to all assay wells. Incubate 20 minutes and read light emitted with luminometer. Results are reported as % inhibition a 2 μM or 10 μM.
row,SMILES,% inh. @ 2 uM
1,CNC(=O)C[C@@H]1NC(=O)c2csc(n2)-c2ccc(-c3nc(N(CCCCC(=O)O)C(=O)O[C@H]4CC[C@H](C(=O)O)C[C@@H]4CCCCC(=O)O)cs3)nc2-c2csc(n2)-c2csc(n2)[C@H]([C@@H](O)c2ccccc2)NC(=O)CNC(=O)c2nc(sc2COC)C(C(C)C)NC(=O)c2nc1sc2C (stereo partly shown) [Compound 29],2 uM = 79.6%
2,CNC(=O)C[C@@H]1NC(=O)c2csc(n2)-c2ccc(-c3nc(N(CCCCC(=O)O)C(=O)OCCC(CCCCC(=O)O)C(=O)O)cs3)nc2-c2csc(n2)-c2csc(n2)[C@H]([C@@H](O)c2ccccc2)NC(=O)CNC(=O)c2nc(sc2COC)C(C(C)C)NC(=O)c2nc1sc2C (stereo partly shown) [Compound 30],2 uM = 83.93%
3,CNC(=O)C[C@@H]1NC(=O)c2csc(n2)-c2ccc(-c3nc(N(CCCC(CCCCCCC(=O)O)C(=O)O)C(=O)O[C@H]4CC[C@H](C(=O)O)CC4)cs3)nc2-c2csc(n2)-c2csc(n2)[C@H]([C@@H](O)c2ccccc2)NC(=O)CNC(=O)c2nc(sc2COC)C(C(C)C)NC(=O)c2nc1sc2C (stereo partly shown) [Compound 31],2 uM = 79.4%
4,CNC(=O)C[C@@H]1NC(=O)c2csc(n2)-c2ccc(-c3nc(N(CCCCC(=O)O)C(=O)OCC(CCCCC(=O)O)CC(=O)O)cs3)nc2-c2csc(n2)-c2csc(n2)[C@H]([C@@H](O)c2ccccc2)NC(=O)CNC(=O)c2nc(sc2COC)C(C(C)C)NC(=O)c2nc1sc2C (stereo partly shown) [Compound 32],2 uM = 78.0%
5,CNC(=O)C[C@@H]1NC(=O)c2csc(n2)-c2ccc(-c3nc(N(CCCCC(=O)O)C(=O)O[C@H]4CC[C@@](CCCCC(=O)O)(C(=O)O)CC4)cs3)nc2-c2csc(n2)-c2csc(n2)[C@H]([C@@H](O)c2ccccc2)NC(=O)CNC(=O)c2nc(sc2COC)C(C(C)C)NC(=O)c2nc1sc2C (stereo partly shown) [Compound 33],2 uM = 46.8%
6,CNC(=O)C[C@@H]1NC(=O)c2csc(n2)-c2ccc(-c3nc(N(CCCCC(=O)O)C(=O)O[C@]4(CCCCC(=O)O)CC[C@@H](C(=O)O)CC4)cs3)nc2-c2csc(n2)-c2csc(n2)[C@H]([C@@H](O)c2ccccc2)NC(=O)CNC(=O)c2nc(sc2COC)C(C(C)C)NC(=O)c2nc1sc2C (stereo partly shown) [Compound 34],2 uM = 63.1%
7,CNC(=O)C[C@@H]1NC(=O)c2csc(n2)-c2ccc(-c3nc(NC(=O)OCCC(CCCCC(=O)O)C(=O)O)cs3)nc2-c2csc(n2)-c2csc(n2)[C@H]([C@@H](O)c2ccccc2)NC(=O)CNC(=O)c2nc(sc2COC)C(C(C)C)NC(=O)c2nc1sc2C (stereo partly shown) [Compound 35],2 uM = 87.0%
